Data published in ChEMBL document CHEMBL5230093, “The importance of indole and azaindole scaffold in the development of antitumor agents” (Eur J Med Chem, 2020).

What was measured:
A549 [1] = test: Antitumor activity against human A549 cells xenografted in mouse model assessed as tumor growth inhibition relative to control; assay type: functional; parameters: scale not given: the % may be the effect or the level left
MCF7 [2] = test: Cytotoxicity against human MCF7 cells assessed as reduction in cell growth measured after 2 days by MTT assay; assay type: functional, cell-based; conditions: MCF7, 48 h
MCF7 [3] = test: Potency index, ratio of doxorubicin IC50 to compound IC50 for anticancer activity against human MCF7 cells; assay type: functional
HepG2 [4] = test: Potency index, ratio of doxorubicin IC50 to compound IC50 for anticancer activity against human HepG2 cells; assay type: functional
HCT-116 [5] = test: Potency index, ratio of doxorubicin IC50 to compound IC50 for anticancer activity against human HCT-116 cells; assay type: functional
MCF7 [6] = test: Anticancer activity against human MCF7 cells incubated for 24 hrs by SRB method; assay type: functional, cell-based; conditions: MCF7, 24 h
HCT-116 [7] = test: Anticancer activity against human HCT-116 cells incubated for 24 hrs by SRB method; assay type: functional, cell-based; conditions: HCT-116, 24 h
HepG2 [8] = test: Anticancer activity against human HepG2 cells incubated for 24 hrs by SRB method; assay type: functional, cell-based; conditions: HepG2, 24 h
DU-145 = test: Antiproliferative activity against human DU-145 cells; assay type: functional, cell-based
HCT-116 [9] = test: Cytotoxicity against human HCT-116 cells; assay type: functional, cell-based
[10] = Resistance factor, ratio of IC50 for human K562/VCR cells to IC50 for K562 cells; assay type: functional; conditions: time 72 hrs
A549 [11] = test: Cytotoxicity against human A549 cells; assay type: functional, cell-based
MCF7 [12] = test: Antiproliferative activity against human MCF7 cells by SRB assay; assay type: functional, cell-based
HepG2 [13] = test: Cytotoxicity against human HepG2 cells; assay type: functional, cell-based
HCT-15 = test: Antiproliferative activity against human HCT-15 cells; assay type: functional, cell-based
HeLa [14] = test: Anticancer activity against human HeLa cells by MTT assay; assay type: functional, cell-based; conditions: pooled result: one value given for 4 cell lines, strains, targets or settings
[15] = Cytotoxicity against human Triple-negative breast cancer cells; assay type: functional, cell-based; conditions: Triple-negative breast cancer cell
BXPC-3 = test: Growth inhibition of human BXPC-3 cells; assay type: functional
NCI-H460 = test: Growth inhibition of human NCI-H460 cells; assay type: functional
PANC-1 = test: Growth inhibition of human PANC-1 cells; assay type: functional
[16] = Antiproliferative activity against human SUIT-2 cells; assay type: functional, cell-based
[17] = Inhibition of cell migration of human SUIT-2 cells; assay type: functional, cell-based
[18] = test system: Panel NCI-60 (60 carcinoma cell lines); test: Antiproliferative activity against human Panel NCI-60 (60 carcinoma cell lines) cells; assay type: functional
UO-31 = test: Antiproliferative activity against human UO-31 cells; assay type: functional
HeLa [19] = test: Antiproliferative activity against human HeLa cells measured after 48 hrs by CCK-8 method; assay type: functional, cell-based
MCF7 [20] = test: Cytotoxicity against human MCF7 cells; assay type: functional, cell-based
HeLa [21] = test: Cytotoxicity against human HeLa cells; assay type: functional, cell-based
A549 [22] = test: Cytotoxicity against human A549 cells assessed as reduction in cell growth; assay type: functional, cell-based
HeLa [23] = test: Antiproliferative activity against human HeLa cells measured after 48 hrs by MTT assay; assay type: functional, cell-based
HepG2 [24] = test: Antiproliferative activity against human HepG2 cells measured after 48 hrs by MTT assay; assay type: functional, cell-based; conditions: HepG2, 48 h
MCF7 [25] = test: Antiproliferative activity against human MCF7 cells measured after 48 hrs by MTT assay; assay type: functional, cell-based; conditions: MCF7, 48 h
Histone deacetylase 4 = Histone deacetylase 4 (Homo sapiens, UniProt P56524); test: Inhibition of human recombinant HDAC4 using Boc-Lys(Ac)-AMC as substrate preincubated for 15 mins followed by substrate addition and measured after 60 mins by fluorescence based analysis
[26] = molecular target: Bromodomain-containing protein 4 (Homo sapiens) (UniProt O60885); test: Inhibition of GST tagged BRD4 (unknown origin) at 10 uM by HTRF assay relative to control
THP-1 = test: Antiproliferative activity against human THP-1 cells incubated for 24 hrs by trypan blue reagent based analysis; assay type: functional, cell-based; conditions: THP-1, 24 h
MDA-MB-231 = test: Cytotoxicity against human MDA-MB-231 cells measured after 72 hrs; assay type: functional, cell-based; conditions: MDA-MB-231, 72 h
MCF7 [27] = test: Antiproliferative activity against human MCF7 cells; assay type: functional, cell-based
Tubulin = test: Inhibition of tubulin polymerization (unknown origin); assay type: protein-complex assay, Homo sapiens

Chain of Histone deacetylase 4 (P56524 whole entry): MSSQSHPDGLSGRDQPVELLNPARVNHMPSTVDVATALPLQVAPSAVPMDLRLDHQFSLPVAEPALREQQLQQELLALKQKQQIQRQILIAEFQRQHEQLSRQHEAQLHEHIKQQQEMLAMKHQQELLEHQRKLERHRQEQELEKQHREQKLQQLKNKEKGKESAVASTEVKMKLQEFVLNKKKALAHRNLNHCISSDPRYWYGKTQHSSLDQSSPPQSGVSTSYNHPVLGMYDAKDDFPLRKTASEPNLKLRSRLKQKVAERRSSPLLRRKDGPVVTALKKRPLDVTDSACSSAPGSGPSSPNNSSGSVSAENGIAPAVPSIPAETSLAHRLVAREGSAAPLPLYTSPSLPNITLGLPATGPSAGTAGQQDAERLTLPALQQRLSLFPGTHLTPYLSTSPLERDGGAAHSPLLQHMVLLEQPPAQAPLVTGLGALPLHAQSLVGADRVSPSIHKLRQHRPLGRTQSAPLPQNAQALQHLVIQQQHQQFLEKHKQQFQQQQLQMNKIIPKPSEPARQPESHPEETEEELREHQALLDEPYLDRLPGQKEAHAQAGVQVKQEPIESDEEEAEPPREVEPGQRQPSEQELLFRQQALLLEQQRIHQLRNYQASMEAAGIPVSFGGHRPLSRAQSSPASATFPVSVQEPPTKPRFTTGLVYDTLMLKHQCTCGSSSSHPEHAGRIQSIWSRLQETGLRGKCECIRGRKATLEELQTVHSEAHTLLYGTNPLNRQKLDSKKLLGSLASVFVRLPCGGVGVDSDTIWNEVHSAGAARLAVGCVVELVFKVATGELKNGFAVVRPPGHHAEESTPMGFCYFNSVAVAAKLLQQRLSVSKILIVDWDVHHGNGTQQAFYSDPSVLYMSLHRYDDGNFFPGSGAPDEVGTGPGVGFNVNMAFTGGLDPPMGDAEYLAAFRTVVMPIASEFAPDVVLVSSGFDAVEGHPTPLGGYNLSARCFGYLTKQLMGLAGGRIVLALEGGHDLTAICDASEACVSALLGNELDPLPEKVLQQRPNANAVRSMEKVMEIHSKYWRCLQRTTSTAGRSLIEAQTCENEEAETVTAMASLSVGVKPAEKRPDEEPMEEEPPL

## COc1cc2cc(C(=O)N3CCC=C(Cl)C3=O)n(C)c2c(OC)c1OC
A549 [1]
  Activity: 54.6%

## Nc1ccccc1Oc1cccc(C(c2c[nH]c3ccc(Cl)cc23)c2c[nH]c3ccc(Cl)cc23)c1
MCF7 [2]
  IC50: 34.8 µM

## CS(=O)(=O)n1cc(-c2cc(-c3cccc(O)c3)[nH]c(=N)n2)c2ccccc21
MCF7 [3]
  Ratio IC50: >8
HepG2 [4]
  Ratio IC50: >8
HCT-116 [5]
  Ratio IC50: >8

## COC(=O)c1ccc(C(=O)/C=C2\C(=O)Nc3ccc(S(=O)(=O)N4CCOCC4)cc32)cc1
MCF7 [6]
  IC50: < 10 µM
HCT-116 [7]
  IC50: < 10 µM
HepG2 [8]
  IC50: < 10 µM

## CS(=O)(=O)n1cc(-c2cc(-c3cccc(O)c3)[nH]c(=S)n2)c2ccccc21
MCF7 [3]
  Ratio IC50: >8
HepG2 [4]
  Ratio IC50: >8
HCT-116 [5]
  Ratio IC50: >8

## COc1cc([C@@H]2c3cc4c(cc3[C@@H](O[C@@H]3O[C@@H]5CO[C@@H](C)O[C@H]5[C@H](O)[C@H]3O)[C@H]3COC(=O)[C@H]23)OCO4)cc(OC)c1O [ETOPOSIDE]
DU-145
  IC50: 9.8 µM

## Cn1cc(-c2nc(-c3cn(C)c4ncc(Cl)cc34)no2)c2cc(Br)ccc21
HCT-116 [9]
  IC50: 1.93 µM

## CNC(=S)N/N=C/c1c(-c2ccc(OC)cc2)[nH]c2ccccc12
[10]
  Ratio IC50: 2.27
A549 [11]
  IC50: 12.5 µM

## COc1cnc2c(c1)c(-c1noc(-c3cn(C)c4ccc(Br)cc34)n1)cn2C
HCT-116 [9]
  IC50: 3.55 µM

## CS(=O)(=O)n1cc(-c2cc(-c3cccc(O)c3)[nH]c(=O)n2)c2ccccc21
MCF7 [3]
  Ratio IC50: >8
HepG2 [4]
  Ratio IC50: >8
HCT-116 [5]
  Ratio IC50: >8

## N#Cc1ccc(Cn2cc(/C=N/NC(=O)Cc3c[nH]c4ncccc34)c3cc(Br)ccc32)cc1
MCF7 [12]
  IC50: 22.3 µM

## Cn1cc(C2=C(C#N)C(c3ccc(Cl)cc3)c3c(nc(N)[nH]c3=O)N2)c2ccccc21 (configuration not stated)
HepG2 [13]
  IC50: 3.57 µM

## COc1cccc2c1C(=O)c1c(O)c3c(c(O)c1C2=O)C[C@@](O)(C(=O)CO)C[C@@H]3O[C@H]1C[C@H](N)[C@H](O)[C@H](C)O1 [DOXORUBICIN]
A549 [1]
  Activity: 53.3%

## COc1ccc(CC/N=C2\NC(=O)/C(=C/c3c[nH]c4ccc(Br)cc34)S2)cc1
HCT-15
  IC50: 0.92 µM

## Nc1ccccc1Oc1cccc(C(c2c[nH]c3ccccc23)c2c[nH]c3ccccc23)c1
MCF7 [2]
  IC50: 23.6 µM

## CC(C)(C)OC(=O)N1CCC2C(C1)c1cc(Br)ccc1N2S(=O)(=O)c1ccc(Cl)cc1 (configuration not stated)
HeLa [14]
  IC50: 9.42 µM

## COc1cc([C@@H]2c3cc4c(cc3[C@H](OC(=O)Cc3ccc5cc[nH]c5c3)[C@H]3COC(=O)[C@H]23)OCO4)cc(OC)c1OC
[10]
  Ratio IC50: 2.27

## O=c1nc(-c2cn(S(=O)(=O)c3ccccc3)c3ccccc23)cc(-c2cccc(O)c2)[nH]1
MCF7 [3]
  Ratio IC50: >8
HepG2 [4]
  Ratio IC50: >8
HCT-116 [5]
  Ratio IC50: >8

## Cc1cccc2c(C(c3ccc(O)cc3)c3c[nH]c4c(C)cccc34)c[nH]c12
[15]
  IC50: 10 µM

## COc1ccc2c(c1)c(/C=N/NC(=O)Cc1c[nH]c3ncccc13)cn2Cc1ccc(F)cc1F
MCF7 [12]
  IC50: 22.3 µM

## O=C(O)C1=C2C(=Nc3ccc(S(=O)(=O)N4CCOCC4)cc32)NC1=O
MCF7 [6]
  IC50: < 10 µM
HCT-116 [7]
  IC50: < 10 µM
HepG2 [8]
  IC50: < 10 µM

## C[C@H]1NC(=O)[C@@H](Cc2c[nH]c3ccccc23)n2c1nc1ccccc1c2=O [FUMIQUINAZOLINE G]
BXPC-3
  GI50: 7.62 µM
NCI-H460
  GI50: 7.62 µM
PANC-1
  GI50: 7.62 µM

## COc1ccc(OC)c(-c2cn3nc(-c4cn(C)c5ccc(Br)cc45)sc3n2)c1
[16]
  IC50: < 10 µM
[17]
  IC50: < 10 µM

## CC(=O)Nc1cccc(C(=O)/C=C2\C(=O)Nc3ccc(S(=O)(=O)N4CCOCC4)cc32)c1
MCF7 [6]
  IC50: < 10 µM
HCT-116 [7]
  IC50: < 10 µM
HepG2 [8]
  IC50: < 10 µM

## COc1ccc(OC)c(-c2cn3nc(-c4c[nH]c5ccc(Br)cc45)sc3n2)c1
[16]
  IC50: < 10 µM
[17]
  IC50: < 10 µM
[18]
  GI50: 10.3 µM
UO-31
  GI50: 1.67 µM

## COc1cc(/C=C/c2ncc([N+](=O)[O-])n2CCOC(=O)c2c[nH]c3ccccc23)cc(OC)c1OC
HeLa [19]
  IC50: 0.015 µM

## O=C(Nc1cc([N+](=O)[O-])cc([N+](=O)[O-])c1)c1coc(-c2c[nH]c3cccnc23)n1
MCF7 [20]
  IC50: 0.034 µM

## N=c1nc(-c2cn(S(=O)(=O)c3ccccc3)c3ccccc23)cc(-c2cccc(O)c2)[nH]1
MCF7 [3]
  Ratio IC50: >8
HepG2 [4]
  Ratio IC50: >8
HCT-116 [5]
  Ratio IC50: >8

## COc1cc(C(c2c[nH]c3ccccc23)c2c[nH]c3ccccc23)cc(Cl)c1O
HeLa [21]
  IC50: 0.37 µM
A549 [22]
  IC50: 0.34 µM

## N#CC(C#N)=C1C(=O)Nc2ccc(S(=O)(=O)N3CCOCC3)cc21
MCF7 [6]
  IC50: < 10 µM
HCT-116 [7]
  IC50: < 10 µM
HepG2 [8]
  IC50: < 10 µM

## O=C(Nc1ccc(Br)cc1)c1coc(-c2c[nH]c3cccnc23)n1
MCF7 [20]
  IC50: 0.36 µM

## Nc1c(C(=O)c2cccc3ccccc23)[nH]c2ncccc12
HeLa [23]
  IC50: 3.7 µM
HepG2 [24]
  IC50: 8 µM
MCF7 [25]
  IC50: 19.9 µM

## O=C(Cc1c[nH]c2ncccc12)N/N=C/c1cn(Cc2ccc(Cl)cc2Cl)c2ccc(Br)cc12
MCF7 [12]
  IC50: 22.3 µM

## Cc1noc(C)c1-c1ccc2c(c1)c(Cc1ccc(F)cc1)cn2CCCCCCCC(=O)NO
Histone deacetylase 4
  IC50: 0.005 µM
[26]
  inhibition: 88%
THP-1
  IC50: 15.5 µM

## CCCCCc1cc2cc(C)cc(/N=C/c3[nH]c(C)c(CCCCC)c3C)c2[nH]1
MDA-MB-231
  IC50: 4.2 µM

## COc1ccc2c(c1)c(/C=N/NC(=O)Cc1c[nH]c3ncccc13)cn2Cc1ccc(Br)cc1
MCF7 [12]
  IC50: 22.3 µM

## CCOC(=O)/C(C#N)=C1/C(=O)Nc2ccc(S(=O)(=O)N3CCOCC3)cc21
MCF7 [6]
  IC50: < 10 µM
HCT-116 [7]
  IC50: < 10 µM
HepG2 [8]
  IC50: < 10 µM

## O=C(Cc1c[nH]c2ncccc12)N/N=C/c1cn(Cc2ccc(Cl)cc2Cl)c2ccccc12
MCF7 [12]
  IC50: 22.3 µM

## O=C(c1nnc(Nc2ccccc2F)o1)c1c[nH]c2ccccc12
MCF7 [27]
  IC50: 2.42 µM
Tubulin
  IC50: 3.89 µM
